Biological target: wild type CK1δ (Homo sapiens, UniProt P48730)
Experiment: CK1δ kinase assay (Kinase-Glo)
Assay type: biochemical
Settings: 10 μM ATP, 2 nM wild type CK1δ, 85 min at 25° C.; read-out: CK1δ inhibition (IC50)
Description: The CK1δ kinase assay was performed with a buffer (40 μL, pH 7.5) containing 50 mM Tris, 10 mM MgCl2, 1 mM dithiothreitol, 100 μg/mL BSA with 10 μM ATP, 2 nM wild type CK1δ, and 42 μM peptide substrate PLSRTLpSVASLPGL (Flotow et al., 1990) in the presence of 1 μL of a CK1δ inhibitor (e.g., a compound of the present application) or 4% DMSO (e.g., as control). The reaction mixture was incubated for 85 min at 25° C.; detection was carried out as described for the Kinase-Glo Assay (Promega). Luminescent output was measured on the Perkin Elmer Envision plate reader (PerkinElmer, Waltham, Mass.).

wild type CK1δ, sequence (P48730 whole entry): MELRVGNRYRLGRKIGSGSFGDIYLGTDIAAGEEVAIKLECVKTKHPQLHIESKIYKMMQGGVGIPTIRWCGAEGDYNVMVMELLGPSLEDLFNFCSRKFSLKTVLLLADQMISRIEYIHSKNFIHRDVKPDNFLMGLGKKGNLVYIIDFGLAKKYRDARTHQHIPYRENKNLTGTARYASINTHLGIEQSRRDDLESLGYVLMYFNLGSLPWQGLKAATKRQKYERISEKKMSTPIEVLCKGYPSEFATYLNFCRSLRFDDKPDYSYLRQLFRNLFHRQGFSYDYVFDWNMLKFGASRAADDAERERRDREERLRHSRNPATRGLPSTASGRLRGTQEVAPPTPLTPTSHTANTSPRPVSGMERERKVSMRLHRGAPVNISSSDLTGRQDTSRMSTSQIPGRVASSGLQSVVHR

IC50 [nM]	SMILES
320	O=C1OCc2nccc(-c3cn4c(c3-c3ccc(F)cc3)C(=O)NCC4)c21 [Compound 5-5, 4-(8-(4-fluorophenyl)-1-oxo-1,2,3,4-tetrahydropyrrolo[1,2-a]pyrazin-7-yl)furo[3,4-b]pyridin-5(7H)-one]
279	CN1CCC(C(=O)N2CCn3nc(-c4ccc(F)cc4)c(-c4ccncc4)c3C2)CC1 [Compound 1-36, (2-(4-fluorophenyl)-3-(pyridin-4-yl)-6,7-dihydropyrazolo[1,5-a]pyrazin-5(4H)-yl)(1-methylpiperidin-4-yl)methanone]
800	Nc1cc(-c2c(-c3ccc(F)cc3)nn3c2OCC3)ccn1 [Compound 1-54, 4-(6-(4-fluorophenyl)-2,3-dihydropyrazolo[5,1-b]oxazol-7-yl)pyridin-2-amine]
21400	Cn1nnc(-c2ccc(F)cc2)c1-c1ccncc1 [Compound 3-9, 4-(4-(4-fluorophenyl)-1-methyl-1H-1,2,3-triazol-5-yl)pyridine]
496	Cc1cc(-c2c(-c3ccc(F)cc3)nn3c2CN(C(=O)C2CCN(C)CC2)CC3)ccn1 [Compound 1-55, (2-(4-fluorophenyl)-3-(2-methylpyridin-4-yl)-6,7-dihydropyrazolo[1,5-a]pyrazin-5(4H)-yl)(1-methylpiperidin-4-yl)methanone]
161	CN1CCn2nc(-c3ccc(F)cc3)c(-c3ccncc3)c2C1 [Compound 1-42, 2-(4-fluorophenyl)-5-methyl-3-(pyridin-4-yl)-4,5,6,7-tetrahydropyrazolo[1,5-a]pyrazine]
180	Cn1cc(-c2ccncc2)c(-c2ccc(F)cc2)c1C#N [Compound 3-1, 3-(4-fluorophenyl)-1-methyl-4-(pyridin-4-yl)-1H-pyrrole-2-carbonitrile]
281	Cn1cc(-c2ccncc2)c(-c2cccc(F)c2)n1 [Compound 3-19, 4-(3-(3-fluorophenyl)-1-methyl-1H-pyrazol-4-yl)pyridine]
1080	Cn1cc(-c2ccncc2)c(-c2ccccc2F)n1 [Compound 3-14, 4-(3-(2-fluorophenyl)-1-methyl-1H-pyrazol-4-yl)pyridine]
132	Cn1cc(-c2ccnc3c2C(=O)OC3)c(-c2ccc(F)cc2)c1C#N [Compound 5-1, 3-(4-fluorophenyl)-1-methyl-4-(5-oxo-5,7-dihydrofuro[3,4-b]pyridin-4-yl)-1H-pyrrole-2-carbonitrile]
11100	Cn1cc(-c2ccncc2)c(-c2ccc(F)cc2)c1C(N)=O [Compound 3-2, 3-(4-fluorophenyl)-1-methyl-4-(pyridin-4-yl)-1H-pyrrole-2-carboxamide]
1020	Cn1cc(-c2ccncc2)c(-c2cc(F)cc(F)c2)n1 [Compound 3-17, 4-(3-(3,5-difluorophenyl)-1-methyl-1H-pyrazol-4-yl)pyridine]
177	CC(=O)N1CCn2nc(-c3ccc(F)cc3)c(-c3ccnc(C)c3)c2C1 [Compound 1-33, 1-(2-(4-fluorophenyl)-3-(2-methylpyridin-4-yl)-6,7-dihydropyrazolo[1,5-a]pyrazin-5(4H)-yl)ethan-1-one]
531	Cn1cc(-c2ccncc2)c(-c2ccc(F)cc2F)n1 [Compound 3-15, 4-(3-(2,4-difluorophenyl)-1-methyl-1H-pyrazol-4-yl)pyridine]
686	Fc1ccc(-c2nn3c(c2-c2ccncc2)COCCC3)cc1 [Compound 1-47, 2-(4-fluorophenyl)-3-(pyridin-4-yl)-7,8-dihydro-4H,6H-pyrazolo[5,1-c][1,4]oxazepine]
370	C[C@H]1Cn2nc(-c3ccc(F)cc3)c(-c3ccncc3)c2CO1 [Compound 1-45, (S)-2-(4-fluorophenyl)-6-methyl-3-(pyridin-4-yl)-6,7-dihydro-4H-pyrazolo[5,1-c][1,4]oxazine]
106	Cc1cc(-c2c(-c3ccc(F)cc3)nn3c2CN(C)CC3)ccn1 [Compound 1-56, 2-(4-fluorophenyl)-5-methyl-3-(2-methylpyridin-4-yl)-4,5,6,7-tetrahydropyrazolo[1,5-a]pyrazine]
215	Fc1ccc(-n2nncc2-c2ccncc2)cc1 [Compound 4-1, 4-(1-(4-fluorophenyl)-1H-1,2,3-triazol-5-yl)pyridine]
74.9	Fc1ccc(-c2nn3c(c2-c2ccncc2)CN(Cc2ccccc2)CC3)cc1 [Compound 1-12, 5-benzyl-2-(4-fluorophenyl)-3-(pyridin-4-yl)-4,5,6,7-tetrahydropyrazolo[1,5-a]pyrazine]
> 100000	O=C1OCc2nccc(-c3c(-c4ccc(F)cc4)nc4cnccn34)c21 [Compound 1-8, 4-(2-(4-fluorophenyl)imidazo[1,2-a]pyrazin-3-yl)furo[3,4-b]pyridin-5(7H)-one]
1840	C[C@@H]1CNC(=O)c2c(-c3ccncc3)c(-c3ccc(F)cc3)nn21 [Compound 1-44, (R)-2-(4-fluorophenyl)-7-methyl-3-(pyridin-4-yl)-6,7-dihydropyrazolo[1,5-a]pyrazin-4(5H)-one]

IC50 [nM]	SMILES
> 100000	CC(=O)N1CCn2nc(-c3ccc(F)cc3)c(-c3cc[n+]([O-])c(C)c3)c2C1 [Compound 1-34, 4-(5-acetyl-2-(4-fluorophenyl)-4,5,6,7-tetrahydropyrazolo[1,5-a]pyrazin-3-yl)-2-methylpyridine-1-oxide]
81.3	CCC(=O)N1CCn2nc(-c3ccc(F)cc3)c(-c3ccncc3)c2C1 [Compound 1-31, 1-(2-(4-fluorophenyl)-3-(pyridin-4-yl)-6,7-dihydropyrazolo[1,5-a]pyrazin-5(4H)-yl)propan-1-one]
480	COC(=O)c1[nH]cc(-c2ccncc2)c1-c1ccc(F)cc1 [Compound 3-4, methyl 3-(4-fluorophenyl)-4-(pyridin-4-yl)-1H-pyrrole-2-carboxylate]
17000	CC(=O)N1CCn2nc(-c3ccc(F)cc3)c(-c3ccnc(C(C)C)c3)c2C1 [Compound 1-53, 1-(2-(4-fluorophenyl)-3-(2-isopropylpyridin-4-yl)-6,7-dihydropyrazolo[1,5-a]pyrazin-5(4H)-yl)ethan-1-one]
7710	COC(=O)c1c(-c2ccc(F)cc2)c(-c2ccncc2)cn1C [Compound 3-5, methyl 3-(4-fluorophenyl)-1-methyl-4-(pyridin-4-yl)-1H-pyrrole-2-carboxylate]
499	Fc1ccc(-c2nc3cnccn3c2-c2ccncc2)cc1 [Compound 1-5, 2-(4-fluorophenyl)-3-(pyridin-4-yl)imidazo[1,2-a]pyrazine]
3660	Fc1ccc(-c2nocc2-c2ccncc2)cc1 [Compound 3-20, 3-(4-fluorophenyl)-4-(pyridin-4-yl)isoxazole]
67.3	Fc1ccc(-c2nn3c(c2-c2ccncc2)CNCC3)cc1 [Compound 1-13, 2-(4-fluorophenyl)-3-(pyridin-4-yl)-4,5,6,7-tetrahydropyrazolo[1,5-a]pyrazine]
254	Fc1ccc(-c2nc3n(c2-c2ccncc2)CCNC3)cc1 [Compound 1-6, 2-(4-fluorophenyl)-3-(pyridin-4-yl)-5,6,7,8-tetrahydroimidazo[1,2-a]pyrazine]
93	Cc1cc(-c2ccnc3c2C(=O)OC3)n(-c2ccc(F)cc2)n1 [Compound 6-1, 4-(1-(4-fluorophenyl)-3-methyl-1H-pyrazol-5-yl)furo[3,4-b]pyridin-5(7H)-one]
368	CC(C)C(=O)N1CCn2nc(-c3ccc(F)cc3)c(-c3ccncc3)c2C1 [Compound 1-32, 1-(2-(4-fluorophenyl)-3-(pyridin-4-yl)-6,7-dihydropyrazolo[1,5-a]pyrazin-5(4H)-yl)-2-methylpropan-1-one]
723	Nc1cc(-c2c(-c3ccc(F)cc3)nn3c2CNCC3)ccn1 [Compound 1-58, 4-(2-(4-fluorophenyl)-4,5,6,7-tetrahydropyrazolo[1,5-a]pyrazin-3-yl)pyridin-2-amine]
3110	CCc1cc(-c2c(-c3ccc(F)cc3)nn3c2CN(C(C)=O)CC3)ccn1 [Compound 1-52, 1-(3-(2-ethylpyridin-4-yl)-2-(4-fluorophenyl)-6,7-dihydropyrazolo[1,5-a]pyrazin-5(4H)-yl)ethan-1-one]
963	CC(=O)N1CCn2nc(-c3ccc(F)cc3)c(-c3ccnc(C)n3)c2C1 [Compound 1-51, 1-(2-(4-fluorophenyl)-3-(2-methylpyrimidin-4-yl)-6,7-dihydropyrazolo[1,5-a]pyrazin-5(4H)-yl)ethan-1-one]
163	Fc1ccc(-c2nn3c(c2-c2ccncc2)COCC3)cc1 [Compound 1-27, 2-(4-fluorophenyl)-3-(pyridin-4-yl)-6,7-dihydro-4H-pyrazolo[5,1-c][1,4]oxazine]
614	CC(=O)N1CCn2c(nc(-c3ccc(F)cc3)c2-c2ccncc2)C1 [Compound 1-7, 1-(2-(4-fluorophenyl)-3-(pyridin-4-yl)-5,6-dihydroimidazo[1,2-a]pyrazin-7(8H)-yl)ethan-1-one]
2200	Cn1cc(-c2ccnc3[nH]cnc23)c(-c2ccc(F)cc2)c1C#N [Compound 5-4, 3-(4-fluorophenyl)-4-(3H-imidazo[4,5-b]pyridin-7-yl)-1-methyl-1H-pyrrole-2-carbonitrile]
4390	Cn1cc(-c2ccncc2)c(-c2ccc(F)cc2Cl)n1 [Compound 3-18, 4-(3-(2-chloro-4-fluorophenyl)-1-methyl-1H-pyrazol-4-yl)pyridine]
9780	Fc1ccc(-n2nc3c(c2-c2ccncc2)CCCC3)cc1 [Compound 1-16, 2-(4-fluorophenyl)-3-(pyridin-4-yl)-4,5,6,7-tetrahydro-2H-indazole]
178	Cn1nc(-c2ccncc2)c(-c2ccc(F)cc2)n1 [Compound 3-6, 4-(5-(4-fluorophenyl)-2-methyl-2H-1,2,3-triazol-4-yl)pyridine]

Reference: patent US20230192699A1, “COMPOUNDS AS CASEIN KINASE INHIBITORS” (GRITSCIENCE BIOPHARMACEUTICALS CO., LTD., priority 2020, published 2023)
